From ChEMBL document CHEMBL3044671, “Synthesis and in vitro antimicrobial and anti-tubercular evaluation of some quinoline-based azitidinone and thiazolidinone analogues” (2013)
Values after ≈ are worked out from the molar mass of the structure shown.

Tests used:
Type in all cases: functional
[1] = system: Staphylococcus aureus; assay: Antimicrobial activity against Staphylococcus aureus MTCC 96 assessed as diameter of growth zone inhibition by agar streak dilution method
[2] = system: Aspergillus niger; assay: Antimicrobial activity against Aspergillus niger MTCC 282 assessed as diameter of growth zone inhibition by agar streak dilution method
[3] = system: Escherichia coli; assay: Antimicrobial activity against Escherichia coli MTCC 739 assessed as growth inhibition by agar streak dilution method
[4] = system: Mycobacterium tuberculosis; assay: Antitubercular activity against Mycobacterium tuberculosis H37Rv assessed as growth inhibition by BACTEC MGIT method
[5] = system: Escherichia coli; assay: Antimicrobial activity against Escherichia coli MTCC 739 assessed as diameter of growth zone inhibition by agar streak dilution method
[6] = system: Aspergillus niger; assay: Antimicrobial activity against Aspergillus niger MTCC 282 assessed as growth inhibition by agar streak dilution method
[7] = system: Candida albicans; assay: Antimicrobial activity against Candida albicans MTCC 183 assessed as diameter of growth zone inhibition by agar streak dilution method
[8] = system: Bacillus subtilis; assay: Antimicrobial activity against Bacillus subtilis MTCC 430 assessed as diameter of growth zone inhibition by agar streak dilution method
[9] = system: Pseudomonas aeruginosa; assay: Antimicrobial activity against Pseudomonas aeruginosa MTCC 741 assessed as diameter of growth zone inhibition by agar streak dilution method
[10] = system: Candida albicans; assay: Antimicrobial activity against Candida albicans MTCC 183 assessed as growth inhibition by agar streak dilution method
[11] = system: Staphylococcus aureus; assay: Antimicrobial activity against Staphylococcus aureus MTCC 96 assessed as growth inhibition by agar streak dilution method
[12] = system: Bacillus subtilis; assay: Antimicrobial activity against Bacillus subtilis MTCC 430 assessed as growth inhibition by agar streak dilution method
[13] = system: Pseudomonas aeruginosa; assay: Antimicrobial activity against Pseudomonas aeruginosa MTCC 741 assessed as growth inhibition by agar streak dilution method

## O=C1C(Cl)C(c2cc3ccccc3nc2S)N1c1ccccc1 (stereo unspecified)
[1]
  diameter of the inhibition zone (DIZ): 17 mm
[2]
  diameter of the inhibition zone (DIZ): <10 mm
[3]
  MIC: 100 µg/mL (≈ 293 µM)
[4]
  MIC: 1000 µg/mL (≈ 2930 µM)
[5]
  diameter of the inhibition zone (DIZ): <10 mm
[6]
  MIC: 100 µg/mL (≈ 293 µM)
[7]
  diameter of the inhibition zone (DIZ): <10 mm
[8]
  diameter of the inhibition zone (DIZ): 17 mm
[9]
  diameter of the inhibition zone (DIZ): <10 mm
[10]
  MIC: 100 µg/mL (≈ 293 µM)
[11]
  MIC: 100 µg/mL (≈ 293 µM)
[12]
  MIC: 100 µg/mL (≈ 293 µM)
[13]
  MIC: 100 µg/mL (≈ 293 µM)

## Cc1ccccc1N1C(=O)C(Cl)C1c1cc2ccccc2nc1S (stereo unspecified)
[1]
  diameter of the inhibition zone (DIZ): 21 mm
[2]
  diameter of the inhibition zone (DIZ): 18 mm
[3]
  MIC: 100 µg/mL (≈ 282 µM)
[4]
  MIC: 500 µg/mL (≈ 1410 µM)
[5]
  diameter of the inhibition zone (DIZ): <10 mm
[6]
  MIC: 100 µg/mL (≈ 282 µM)
[7]
  diameter of the inhibition zone (DIZ): 20 mm
[8]
  diameter of the inhibition zone (DIZ): <10 mm
[9]
  diameter of the inhibition zone (DIZ): 19 mm
[10]
  MIC: 100 µg/mL (≈ 282 µM)
[11]
  MIC: 62.5 µg/mL (≈ 176 µM)
[12]
  MIC: 100 µg/mL (≈ 282 µM)
[13]
  MIC: 100 µg/mL (≈ 282 µM)

## Cc1cccc(N2C(=O)C(Cl)C2c2cc3ccccc3nc2S)c1 (stereo unspecified)
[1]
  diameter of the inhibition zone (DIZ): 19 mm
[2]
  diameter of the inhibition zone (DIZ): 19 mm
[3]
  MIC: 100 µg/mL (≈ 282 µM)
[4]
  MIC: 500 µg/mL (≈ 1410 µM)
[5]
  diameter of the inhibition zone (DIZ): 17 mm
[6]
  MIC: 100 µg/mL (≈ 282 µM)
[7]
  diameter of the inhibition zone (DIZ): 18 mm
[8]
  diameter of the inhibition zone (DIZ): 18 mm
[9]
  diameter of the inhibition zone (DIZ): <10 mm
[10]
  MIC: 100 µg/mL (≈ 282 µM)
[11]
  MIC: 100 µg/mL (≈ 282 µM)
[12]
  MIC: 100 µg/mL (≈ 282 µM)
[13]
  MIC: 100 µg/mL (≈ 282 µM)

## Cc1ccc(N2C(=O)C(Cl)C2c2cc3ccccc3nc2S)cc1 (stereo unspecified)
[1]
  diameter of the inhibition zone (DIZ): 18 mm
[2]
  diameter of the inhibition zone (DIZ): 17 mm
[3]
  MIC: 100 µg/mL (≈ 282 µM)
[4]
  MIC: 250 µg/mL (≈ 704 µM)
[5]
  diameter of the inhibition zone (DIZ): 18 mm
[6]
  MIC: 100 µg/mL (≈ 282 µM)
[7]
  diameter of the inhibition zone (DIZ): 15 mm
[8]
  diameter of the inhibition zone (DIZ): 19 mm
[9]
  diameter of the inhibition zone (DIZ): 18 mm
[10]
  MIC: 100 µg/mL (≈ 282 µM)
[11]
  MIC: 100 µg/mL (≈ 282 µM)
[12]
  MIC: 100 µg/mL (≈ 282 µM)
[13]
  MIC: 100 µg/mL (≈ 282 µM)

## O=C1C(Cl)C(c2cc3ccccc3nc2S)N1c1ccccc1[N+](=O)[O-] (stereo unspecified)
[1]
  diameter of the inhibition zone (DIZ): 22 mm
[2]
  diameter of the inhibition zone (DIZ): 23 mm
[3]
  MIC: 62.5 µg/mL (≈ 162 µM)
[4]
  MIC: 500 µg/mL (≈ 1300 µM)
[5]
  diameter of the inhibition zone (DIZ): 21 mm
[6]
  MIC: 25 µg/mL (≈ 64.8 µM)
[7]
  diameter of the inhibition zone (DIZ): 21 mm
[8]
  diameter of the inhibition zone (DIZ): 22 mm
[9]
  diameter of the inhibition zone (DIZ): 24 mm
[10]
  MIC: 62.5 µg/mL (≈ 162 µM)
[11]
  MIC: 62.5 µg/mL (≈ 162 µM)
[12]
  MIC: 62.5 µg/mL (≈ 162 µM)
[13]
  MIC: 25 µg/mL (≈ 64.8 µM)

## O=C1C(Cl)C(c2cc3ccccc3nc2S)N1c1cccc([N+](=O)[O-])c1 (stereo unspecified)
[1]
  diameter of the inhibition zone (DIZ): 22 mm
[2]
  diameter of the inhibition zone (DIZ): 24 mm
[3]
  MIC: 50 µg/mL (≈ 130 µM)
[4]
  MIC: 250 µg/mL (≈ 648 µM)
[5]
  diameter of the inhibition zone (DIZ): 22 mm
[6]
  MIC: 12.5 µg/mL (≈ 32.4 µM)
[7]
  diameter of the inhibition zone (DIZ): 20 mm
[8]
  diameter of the inhibition zone (DIZ): 22 mm
[9]
  diameter of the inhibition zone (DIZ): 23 mm
[10]
  MIC: 100 µg/mL (≈ 259 µM)
[11]
  MIC: 50 µg/mL (≈ 130 µM)
[12]
  MIC: 50 µg/mL (≈ 130 µM)
[13]
  MIC: 50 µg/mL (≈ 130 µM)

## O=C1C(Cl)C(c2cc3ccccc3nc2S)N1c1ccc([N+](=O)[O-])cc1 (stereo unspecified)
[1]
  diameter of the inhibition zone (DIZ): 24 mm
[2]
  diameter of the inhibition zone (DIZ): 24 mm
[3]
  MIC: 12.5 µg/mL (≈ 32.4 µM)
[4]
  MIC: 250 µg/mL (≈ 648 µM)
[5]
  diameter of the inhibition zone (DIZ): 25 mm
[6]
  MIC: 12.5 µg/mL (≈ 32.4 µM)
[7]
  diameter of the inhibition zone (DIZ): 20 mm
[8]
  diameter of the inhibition zone (DIZ): 24 mm
[9]
  diameter of the inhibition zone (DIZ): 24 mm
[10]
  MIC: 100 µg/mL (≈ 259 µM)
[11]
  MIC: 50 µg/mL (≈ 130 µM)
[12]
  MIC: 25 µg/mL (≈ 64.8 µM)
[13]
  MIC: 12.5 µg/mL (≈ 32.4 µM)

## O=C1C(Cl)C(c2cc3ccccc3nc2S)N1c1ccccc1Cl (stereo unspecified)
[1]
  diameter of the inhibition zone (DIZ): 24 mm
[2]
  diameter of the inhibition zone (DIZ): 20 mm
[3]
  MIC: 50 µg/mL (≈ 133 µM)
[4]
  MIC: 125 µg/mL (≈ 333 µM)
[5]
  diameter of the inhibition zone (DIZ): 23 mm
[6]
  MIC: 62.5 µg/mL (≈ 167 µM)
[7]
  diameter of the inhibition zone (DIZ): 19 mm
[8]
  diameter of the inhibition zone (DIZ): 25 mm
[9]
  diameter of the inhibition zone (DIZ): 22 mm
[10]
  MIC: 100 µg/mL (≈ 266 µM)
[11]
  MIC: 6.25 µg/mL (≈ 16.7 µM)
[12]
  MIC: 12.5 µg/mL (≈ 33.3 µM)
[13]
  MIC: 50 µg/mL (≈ 133 µM)

## O=C1C(Cl)C(c2cc3ccccc3nc2S)N1c1cccc(Cl)c1 (stereo unspecified)
[1]
  diameter of the inhibition zone (DIZ): 24 mm
[2]
  diameter of the inhibition zone (DIZ): 25 mm
[3]
  MIC: 62.5 µg/mL (≈ 167 µM)
[4]
  MIC: 125 µg/mL (≈ 333 µM)
[5]
  diameter of the inhibition zone (DIZ): 22 mm
[6]
  MIC: 50 µg/mL (≈ 133 µM)
[7]
  diameter of the inhibition zone (DIZ): 21 mm
[8]
  diameter of the inhibition zone (DIZ): 25 mm
[9]
  diameter of the inhibition zone (DIZ): 23 mm
[10]
  MIC: 62.5 µg/mL (≈ 167 µM)
[11]
  MIC: 12.5 µg/mL (≈ 33.3 µM)
[12]
  MIC: 12.5 µg/mL (≈ 33.3 µM)
[13]
  MIC: 62.5 µg/mL (≈ 167 µM)

## O=C1C(Cl)C(c2cc3ccccc3nc2S)N1c1ccc(Cl)cc1 (stereo unspecified)
[1]
  diameter of the inhibition zone (DIZ): 26 mm
[2]
  diameter of the inhibition zone (DIZ): 25 mm
[3]
  MIC: 25 µg/mL (≈ 66.6 µM)
[4]
  MIC: 62.5 µg/mL (≈ 167 µM)
[5]
  diameter of the inhibition zone (DIZ): 24 mm
[6]
  MIC: 25 µg/mL (≈ 66.6 µM)
[7]
  diameter of the inhibition zone (DIZ): 22 mm
[8]
  diameter of the inhibition zone (DIZ): 25 mm
[9]
  diameter of the inhibition zone (DIZ): 24 mm
[10]
  MIC: 100 µg/mL (≈ 266 µM)
[11]
  MIC: 6.25 µg/mL (≈ 16.7 µM)
[12]
  MIC: 6.25 µg/mL (≈ 16.7 µM)
[13]
  MIC: 25 µg/mL (≈ 66.6 µM)

## O=C1C(Cl)C(c2cc3ccccc3nc2S)N1c1ccc(F)cc1 (stereo unspecified)
[1]
  diameter of the inhibition zone (DIZ): 26 mm
[2]
  diameter of the inhibition zone (DIZ): 25 mm
[3]
  MIC: 12.5 µg/mL (≈ 34.8 µM)
[4]
  MIC: 62.5 µg/mL (≈ 174 µM)
[5]
  diameter of the inhibition zone (DIZ): 24 mm
[6]
  MIC: 12.5 µg/mL (≈ 34.8 µM)
[7]
  diameter of the inhibition zone (DIZ): 24 mm
[8]
  diameter of the inhibition zone (DIZ): 25 mm
[9]
  diameter of the inhibition zone (DIZ): 23 mm
[10]
  MIC: 25 µg/mL (≈ 69.7 µM)
[11]
  MIC: 6.25 µg/mL (≈ 17.4 µM)
[12]
  MIC: 6.25 µg/mL (≈ 17.4 µM)
[13]
  MIC: 25 µg/mL (≈ 69.7 µM)

## Cc1cnc(N2C(=O)C(Cl)C2c2cc3ccccc3nc2S)s1 (stereo unspecified)
[1]
  diameter of the inhibition zone (DIZ): 24 mm
[2]
  diameter of the inhibition zone (DIZ): 22 mm
[3]
  MIC: 12.5 µg/mL (≈ 34.5 µM)
[4]
  MIC: 125 µg/mL (≈ 345 µM)
[5]
  diameter of the inhibition zone (DIZ): 24 mm
[6]
  MIC: 50 µg/mL (≈ 138 µM)
[7]
  diameter of the inhibition zone (DIZ): 24 mm
[8]
  diameter of the inhibition zone (DIZ): 22 mm
[9]
  diameter of the inhibition zone (DIZ): 22 mm
[10]
  MIC: 62.5 µg/mL (≈ 173 µM)
[11]
  MIC: 25 µg/mL (≈ 69.1 µM)
[12]
  MIC: 6.25 µg/mL (≈ 17.3 µM)
[13]
  MIC: 100 µg/mL (≈ 276 µM)
